Test results published in patent publication US20040265847A1, “Method for treating Alzheimer's disease” (priority 1991, published 2004).
Square brackets hold non-standard residues; d marks the D form. Peptide text beside a SMILES is read from it. * marks the point of attachment. Sta = CC(C)C[C@H](N)[C@@H](O)CC(=O)O; Isovaleryl = CC(C)CC(=O)*

Columns and labels:
[1] = system: human brain full-length APP; test: ^125I-APP binding to heparin-Sepharose; details: for effect on profile of ^125I-APP elution from heparin-Sepharose: Co^2+ at 75 μM
Protocol: 100 kDa human brian full-length APP was iodinated by the Chloramine-T method. Iodinated APP (^125I-APP) was then separated from labelling reagents by Sephacryl G25 chromatography.
The column was then washed with 6 ml buffer 1 and the APP eluted with aliquots of high-NaCl buffers.

[2] = system: human brain 130/110 kDa APP; test: ^65Zn binding to human brain 130/110 kDa APP (time course, competition, Scatchard); details: for shift of competition curve relative to the Zn^2+ competition curve: competition for ^65Zn binding; for ^65Zn label competed off APP (of Bmax): unlabelled metal ion at 20 μM
From the text: FIG. 4 is a graphical representation showing a time course analysis of ^65Zn binding to human brain 130/110 kDa APP. Amyloid protein precursor (APP) was purified according to the method in Moir et al. (1992). The preparation of purified 130 and 110 kDa APP was derived from human brain membrane extracts and contained the full-length precursor with carboxyl terminus intact but lacked the 17 residue signal peptide. The 130 and 110 kDa proteins were apparent in equal ratios on silver staining following polyacrylamide gel electrophoresis and were the only bands visible. The identity of these two proteins was confirmed by Western blots with monoclonal antibody 22C11 (which recognises an amino terminal epitope on APP), and by amino terminal sequencing. The protein concentration of the APP preparation was determined by amino acid analysis. Aliquots of APP (90 ng, =1.1 pmole, assuming the average amino acid formula weight of APP is =80 kDa) were incubated at 20° C. for the times indicated. Incubations (50 μl) were performed in 150 mM NaCl, 50 mM Tris-Hcl, pH 7.4 in the presence of 10^6 cpm of ^65Zn (175 nM). The incubation solution was then applied to a 1.1 ml bed volume Sephadex G25 (Pharmacia, Uppsala, Sweden) column pre-equilibrated with 150 mM NaCl, 50 mM Tris-HCl, pH 7.4 and allowed to settle before being desalted with 645 μl of the Equilibration buffer. […] The desalted protein was collected directly into counting tubes containing 10 ml aqueous counting scintillant. Less than two minutes was required to complete the desalting. The amount of ^65Zn bound to desalted APP was determined by counting the collected sample in a beta-counter set to the broadest channel. Counting was determined to be 51% efficient. The values shown are means±SD of n≧3 readings.
FIG. 5 is a graphical representation showing a competition analysis of ^65Zn binding to human brain 130/110 kDa APP. Aliquots of APP were incubated for 30 minutes with ^65Zn as in FIG. 4. The binding of the labelled Zn^2+ to APP was subjected to competition with unlabelled Zn^2+ in the form of the chloride salt. Data shown indicate the competition curves generated at pH 6.4 and 7.4. The binding of Zn^2+ to APP deteriorated at the lower pH (=45% of Bmax, pH 7.4). The values are means±SEM of n≧3 readings. The curves illustrated are typical of three experiments.
FIG. 6 is a graphical representation depicting a Scatchard analysis of ^65Zn binding to human brain 130/110 kDa APP.
Binding analysis was performed as follows: Aliquots of APP (90 ng, =1.1 pmole, assuming the average amino acid formula mass of APP is =80 kDa) were incubated at 20° C. Incubations (50 μl) were performed in 150 mM NaCl, 50 mM Tris-HCl, pH 7.4 in the presence of 10^6 CPM of ^65Zn (175 nM). The incubation solution was then applied to a 1.1 ml bed volume Sephadex G25 (Pharmacia, Uppsala, Sweden) column pre-equilibrated with 150 mM NaCl, 50 mM Tris-HCl, pH 7.4 and allowed to settle before being desalted with 645 μl of the equilibration buffer. […] The deslated protein was collected directly into counting tubes containing 10 ml aqueous counting scintillant (ACSII, Amersham). Less than two minutes was required to complete the desalting. The amount of ^65Zn bound to desalted APP was determined by counting the collected sample in a beta-counter set to the broadest channel. Counting was determined to be 51% efficient. The binding of the labelled Zn^2+ to APP was subjected to competition with unlabelled Zn^2+ and other metal chloride salts.

[3] = dot-blot ^65Zn^2+ binding to synthetic peptides (putative zinc-binding domain of APP); details: for ability to bind ^65Zn^2+: 16 μg peptide dot-blotted
Protocol: 16 μg of the synthesized peptide […], representing residues 181-214 of APP695 (or residues 181-200), or 16 μg of control peptide, was dissolved in 200 μl of blocking buffer (50 mM Tris-HCl, 1 mM MnCl2 10 mM β-mercaptoethanol, 20% methanol, pH 7.4) and dot-blotted onto PVDF (Immobilon-P, Millipore, Befored, Mass.) which had been pre-wetted with methanol. The blot was then incubated for 30 mins at 20° C. with 100,000 CPM of ^65Zn^2+ in blocking buffer, in the presence or absence of various concentrations of competing unlabeled Zn^2+ or other divalent cations. After incubation the dot-blot was washed three times with 200 μl of blocking buffer without MnCl2, the dot was excised and placed in 10 ml of scintillant and assayed by β-counting.

APP-degrading protease = test: Assay of APP-degrading protease (Zn^2+-enhanced degradation of plasma 130 kDa APP); assay type: biochemical, human
PC12 cells = test: Effect of extracellular zinc on cultured PC12 cells (APP by Western blot); assay type: cell-based; details: 48 hr
Protocol: 10^6 PC12 cells were plated for 24 hr in the presence of Dulbecco's modified Eagle's medium (DMEM, N2) supplemented with 8% fetal calf serum (FCS). The medium was then removed and replaced with DMEM±2 to 50 μM ZnCl2 or another salt, and no FCS. Cells and media were harvested 48 hr later and aliquots of media, cell cytosol and membrane (following lysis and ultracentrifugation) were assayed for APP by Western blotting with mAb 22C11.

[4] = system: human brain membrane-derived APP; test: trypsin digestion of human brain membrane-derived APP, Western blot with 22C11; assay type: biochemical
From the text: The proteolytic activity of trypsin (Boehringer, Mannheim) was studied to determine whether it was modulated by a range of doses of heparin (Sigma) and ZnCl2. […] Western blots for APP using the APP binding monoclonal antibody 22C11 were used to monitor the progression of the proteolytic reaction and to detect breakdown products.

trypsin = test: tryptic activity on fluorogenic substrate Z-F-R-AMC; assay type: biochemical; details: range of doses
[5] = young adult control preparation, two hours at 37° C., 20 μM ZnCl2

human brain membrane-derived APP, sequence (P05067 18-288 limits assumed): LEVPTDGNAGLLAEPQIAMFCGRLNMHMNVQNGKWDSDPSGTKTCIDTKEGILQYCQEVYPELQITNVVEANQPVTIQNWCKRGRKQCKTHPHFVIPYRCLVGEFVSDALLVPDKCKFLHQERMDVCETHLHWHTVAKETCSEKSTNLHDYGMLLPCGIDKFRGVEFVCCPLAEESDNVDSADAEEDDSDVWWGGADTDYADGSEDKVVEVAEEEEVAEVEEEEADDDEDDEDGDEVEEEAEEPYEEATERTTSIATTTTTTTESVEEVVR

[Ca+2].[Cl-].[Cl-] [Ca^2+, reference compound]
effect on profile of ^125I-APP elution from heparin-Sepharose [1]: did not alter the profile of ^125I-APP elution | shift of competition curve relative to the Zn^2+ competition curve [2]: shifted greater than two log units to the right

GVEFVCCPLAEESDNVDSADAEEDDSDVWWGGAD [residues 181-214 of APP]
ability to bind ^65Zn^2+ [3]: able to bind Zn^2+ in a saturable and specific manner

aprotinin
influence on Zn^2+-enhanced APP proteolysis (APP-degrading protease; [5]): completely inhibited

[Cl][Cu] [cuprous chloride, reference compound]
effect on APP released into the media compared with zinc (PC12 cells): far smaller stimulatory effects

CCN1C(=O)C=CC1=O [N-ethyl maleimide, N-ethylmaleimide]
influence on Zn^2+-enhanced APP proteolysis (APP-degrading protease; [5]): Neither Al3Cl, the cysteine-protease inhibitor N-ethyl maleimide, nor the acid-protease inhibitor pepstatin A influenced the reaction

Insulin B chain: positive control
ability to bind ^65Zn^2+ [3]: bound ^65Zn^2+

heparin [reference compound]
influence on Zn^2+-enhanced APP proteolysis (APP-degrading protease; [5]): completely inhibited | concentration at which protective effect saturated [4]: 10 µM | heparin concentration causing marked reduction in rate and degree of brain APP degradation by trypsin ([4]; trypsin 1:64, one hour at 37° C.): 100 nM | effect on tryptic activity (trypsin): left tryptic activity unaltered

[Cl-].[Cl-].[Mg+2] [Mg^2+, reference compound]
effect on profile of ^125I-APP elution from heparin-Sepharose [1]: did not alter the profile of ^125I-APP elution | shift of competition curve relative to the Zn^2+ competition curve [2]: shifted greater than two log units to the right

residues 189-220 of APP695: synthetic peptide lacking the cysteine residues at positions 186/187 (LAEESDNVDSADAEEDDSDVWWGGADTDYADG; APP695; UniProt P05067 189-220, looked up, fragment)
amount of ^65Zn^2+ binding relative to same quantity of 181-214 peptide [3]: approximately 15%

[Cl][Fe][Cl] [FeCl2, reference compound]
effect on APP released into the media compared with zinc (PC12 cells): had a similar effect

[Co+2] [Co^2+, reference compound]
effect on profile of ^125I-APP elution from heparin-Sepharose [1]: increased the recovery of ^125I-APP in the 100-500 and 500-2000 mM NaCl fractions | ^65Zn label competed off APP (of Bmax) [2]: 70%

Insulin A chain: control peptide
ability to bind ^65Zn^2+ [3]: unable to bind Zn^2+

residues 581-601: peptide representing another region of the APP molecule (TETKTTVELLPVNGEFSLDDL; UniProt P05067 598-618, looked up, fragment)
ability to bind ^65Zn^2+ [3]: unable to bind Zn^2+

CC(C)CC(=O)N[C@H](C(=O)N[C@H](C(=O)N[C@@H](CC(C)C)[C@@H](O)CC(=O)N[C@@H](C)C(=O)N[C@@H](CC(C)C)[C@@H](O)CC(=O)O)C(C)C)C(C)C [pepstatin A] (Isovaleryl-VV[Sta]A[Sta]-OH)
influence on Zn^2+-enhanced APP proteolysis (APP-degrading protease; […]): Neither Al3Cl, the cysteine-protease inhibitor N-ethyl maleimide, nor the acid-protease inhibitor pepstatin A influenced the reaction

renin
ability to bind ^65Zn^2+ [3]: unable to bind Zn^2+

carboxyamidomethylated 181-214 peptide: the 181-214 peptide where the cysteines had been modified by carboxyamidomethylation
amount of ^65Zn^2+ binding relative to same quantity of 181-214 peptide [3]: approximately 15%

residues 645-655: peptide representing another region of the APP molecule (KTEEISEVKMD; UniProt P05067 662-672, looked up, fragment)
ability to bind ^65Zn^2+ [3]: unable to bind Zn^2+

[Cl][Al]([Cl])[Cl] [Al3Cl, reference compound]
effect on APP released into the media compared with zinc (PC12 cells): far smaller stimulatory effects | influence on Zn^2+-enhanced APP proteolysis (APP-degrading protease; [5]): Neither Al3Cl, the cysteine-protease inhibitor N-ethyl maleimide, nor the acid-protease inhibitor pepstatin A influenced the reaction

O=C(O)CN(CCN(CC(=O)O)CC(=O)O)CC(=O)O [EDTA, ethylene diamine tetra acetic acid]
influence on Zn^2+-enhanced APP proteolysis (APP-degrading protease; [5]): completely inhibited

residues 422-433: peptide representing another region of the APP molecule (VESLEQEAANER; UniProt P05067 439-450, looked up, fragment)
ability to bind ^65Zn^2+ [3]: unable to bind Zn^2+

residues 181-200 of APP: synthetic peptide representing about residues 181-200 of APP (SADAEEDDSDVWWGGADTDY; UniProt P05067 198-217, looked up, fragment)
ability to bind ^65Zn^2+ [3]: bind zinc in a specific and saturable manner

[Cl][Al]([Cl])[Cl] [Al^3+]
increase in ^125I-APP recovery in the 500-2000 mM NaCl fraction [1]: approximately 4.5 fold | effect on profile of ^125I-APP elution from heparin-Sepharose [1]: decreased the recovery of ^125I-APP except in the 500-2000 mM NaCl fraction | ^65Zn label competed off APP (of Bmax) [2]: 60%

[Cu+2] [Cu^2+, reference compound]
^65Zn label competed off APP (of Bmax) [2]: 60%

B1: soya bean trypsin inhibitor (protein, UniProt P01070 25-205, looked up)
Trypsin inhibitor A: DFVLDNEGNPLENGGTYYILSDITAFGGIRAAPTGNERCPLTVVQSRNELDKGIGTIISSPYRIRFIAEGHPLSLKFDSFAVIMLCVGIPTEWSVVEDLPEGPAVKIGENKDAMDGWFRLERVSDDEFNNYKLVFCPQQAEDDKCGDIGISIDHDDGTRRLVVSKNKPLVVQFQKLDKESL
influence on Zn^2+-enhanced APP proteolysis (APP-degrading protease; [5]): completely inhibited

B2: α1-antichymotrypsin (protein, UniProt P01011 24-423, looked up)
Alpha-1-antichymotrypsin: HPNSPLDEENLTQENQDRGTHVDLGLASANVDFAFSLYKQLVLKAPDKNVIFSPLSISTALAFLSLGAHNTTLTEILKGLKFNLTETSEAEIHQSFQHLLRTLNQSSDELQLSMGNAMFVKEQLSLLDRFTEDAKRLYGSEAFATDFQDSAAAKKLINDYVKNGTRGKITDLIKDLDSQTMMVLVNYIFFKAKWEMPFDPQDTHQSRFYLSKKKWVMVPMMSLHHLTIPYFRDEELSCTVVELKYTGNASALFILPDQDKMEEVEAMLLPETLKRWRDSLEFREIGELYLPKFSISRDYNLNDILLQLGIEEAFTSKADLSGITGARNLAVSQVVHKAVLDVFEEGTEASAATAVKITLLSALVETRTIVRFNRPFLMIIVPTDTQNIFFMSKVTNPKQA
influence on Zn^2+-enhanced APP proteolysis (APP-degrading protease; [5]): incompletely inhibited
